Values quoted from earlier work as cited in patent US20130007910A1, “STRUCTURE OF THE BRASS[…] BRI1, AND MODULATION OF BRI1 SIGNALING” (Salk Institute for Biological Studies (027731), priority 2011, published 2013).

Biological target: T1, BRI1 (Arabidopsis thaliana, UniProt O22476)
T1 sequence (O22476 24-1196): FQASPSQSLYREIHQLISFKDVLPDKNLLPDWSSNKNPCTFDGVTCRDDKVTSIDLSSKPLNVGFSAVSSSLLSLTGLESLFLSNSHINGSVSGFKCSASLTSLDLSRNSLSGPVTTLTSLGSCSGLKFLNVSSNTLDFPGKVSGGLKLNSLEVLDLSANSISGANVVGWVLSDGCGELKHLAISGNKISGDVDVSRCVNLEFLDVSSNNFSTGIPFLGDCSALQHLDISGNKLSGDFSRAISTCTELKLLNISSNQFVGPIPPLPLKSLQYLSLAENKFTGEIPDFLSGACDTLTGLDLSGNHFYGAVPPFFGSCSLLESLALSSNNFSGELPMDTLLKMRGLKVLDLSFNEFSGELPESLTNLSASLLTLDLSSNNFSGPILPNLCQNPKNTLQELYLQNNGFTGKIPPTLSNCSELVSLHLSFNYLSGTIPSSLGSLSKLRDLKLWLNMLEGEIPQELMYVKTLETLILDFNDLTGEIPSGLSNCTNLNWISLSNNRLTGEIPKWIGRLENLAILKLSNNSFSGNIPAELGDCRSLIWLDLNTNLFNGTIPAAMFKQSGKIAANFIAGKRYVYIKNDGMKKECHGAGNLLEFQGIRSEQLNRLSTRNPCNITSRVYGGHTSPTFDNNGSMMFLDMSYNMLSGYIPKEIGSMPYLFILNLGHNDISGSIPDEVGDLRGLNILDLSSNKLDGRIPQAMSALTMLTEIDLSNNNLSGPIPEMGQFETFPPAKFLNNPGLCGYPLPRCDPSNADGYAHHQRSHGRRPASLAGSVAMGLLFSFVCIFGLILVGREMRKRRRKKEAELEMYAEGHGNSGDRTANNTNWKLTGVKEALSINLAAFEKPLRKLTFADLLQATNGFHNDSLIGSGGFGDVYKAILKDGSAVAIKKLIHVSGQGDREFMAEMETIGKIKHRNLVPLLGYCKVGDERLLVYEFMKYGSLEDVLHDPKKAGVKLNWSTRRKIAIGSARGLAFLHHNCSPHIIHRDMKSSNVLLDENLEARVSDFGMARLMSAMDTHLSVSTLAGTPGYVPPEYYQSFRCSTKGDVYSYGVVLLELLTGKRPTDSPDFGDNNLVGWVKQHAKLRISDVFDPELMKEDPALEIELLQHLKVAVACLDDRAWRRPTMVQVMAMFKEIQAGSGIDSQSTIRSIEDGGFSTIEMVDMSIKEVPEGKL
Conditions: for recognition of steroid ligand by BRI1: known behaviour, explained from the co-crystal structure (alkyl side chain pocket, B-ring contacts)

SMILES | affinity of binding to BRI1 (stated in words, no method or figure given) | recognition of steroid ligand by BRI1
CC(C)[C@H](C)[C@@H](O)[C@H](O)[C@@H](C)[C@H]1CC[C@H]2[C@@H]3COC(=O)[C@H]4C[C@H](O)[C@H](O)C[C@]4(C)[C@H]3CC[C@]12C [brassinolide] | nanomolar | 
C[C@H]([C@H](O)CCC(C)(C)O)[C@H]1CC[C@@]2(O)C3=CC(=O)[C@@H]4C[C@@H](O)[C@@H](O)C[C@]4(C)[C@H]3CC[C@]12C [ecdysone] |  | cannot be recognized by BRI1
CC(C)[C@H](C)[C@@H](O)[C@H](O)[C@@H](C)[C@H]1CC[C@H]2[C@@H]3CC(=O)[C@H]4C[C@H](O)[C@H](O)C[C@]4(C)[C@H]3CC[C@]12C [castasterone] |  | tolerated by BRI1
